The source of these data is a melting point compilation (Tetko et al.).

Broadly, the melting point is the temperature of the solid-liquid transition. As to `O=C1C(Br)CCN1c1ccc(C(F)(F)F)cc1` (stereo unspecified), the melting point was in the range of 63 to 65 °C.

`Cc1nnnn1-c1cc(N)ccc1F` gave a melting point of 109 to 111 °C.

Regarding `COc1ccc(OC)c(-c2cc(C(=O)O)no2)c1`, the melting point was in the range of 192 to 194 °C.

Turning to `CN1CCN(c2ccc(C(=O)O)cc2[N+](=O)[O-])CC1`, the melting point was in the range of 160 to 162 °C.

Regarding `Nc1ccccc1S(=O)(=O)C(F)F`, the melting point lay in the range of 65 to 67 °C.

For the compound `c1ccc(COc2cccc3[nH]ncc23)cc1`, the melting point lay within 125 to 127 °C.

`Cc1cc(Cl)c2cc(Br)cc(C)c2n1` yielded a melting point of 134 to 136 °C.

In turn, `Cc1cc([N+](=O)[O-])ccc1NC(=O)CCCl` showed a melting point of 147 to 149 °C.

For `O=C1Nc2ccccc2C1=NO`, the melting point lay within 242 to 244 °C.

Turning to `CC(Cl)C(=O)Nc1ccc(F)c([N+](=O)[O-])c1` (stereo unspecified), the melting point lay within 96 to 98 °C.

Take `COc1ccc([N+](=O)[O-])cc1NS(=O)(=O)c1cc(C(=O)O)ccc1Cl`: the melting point lay in the range of 57 to 59 °C.

The compound `COC(=O)c1ccc(C#N)cc1OC` had a melting point of 101 to 103 °C.

On to `Cc1noc(-c2ccc([N+](=O)[O-])c(C)c2)n1`, for which the melting point lay within 132 to 134 °C.

For the compound `O=C(O)C(=Cc1ccc(Cl)cc1)c1ccc(F)cc1`, the melting point lay within 204 to 206 °C.

The compound `NC(=O)c1ccc(-n2cccc2)cc1` yielded a melting point of 237 to 239 °C.

Regarding `OC(Cn1cncn1)c1ccc(Cl)cc1` (stereo unspecified), the melting point was in the range of 111 to 113 °C.

`Nc1ccc(Oc2cccc(F)c2)c2ccncc12` gave a melting point of 137 to 139 °C.

`CC(C)c1ccc(C(N)CC(=O)O)cc1` (stereo unspecified) had a melting point of 234 to 236 °C.

Turning to `O=[N+]([O-])c1c(Cl)ccc2ncccc12`, the melting point was in the range of 119 to 121 °C.

`Cc1cc(Cl)nc(-c2cccnc2)n1` yielded a melting point of 70 to 72 °C.

As to `COC(=O)c1cc(S(=O)(=O)Cl)c(Cl)cc1Cl`, the melting point was in the range of 110 to 112 °C.

Compound `CN1CC(=O)Nc2cccnc21` showed a melting point of 161 to 163 °C.

In turn, `CSc1cc(N)ccn1` registered a melting point of 79 to 81 °C.

`C#CCNC(=O)Nc1ccccc1F` displayed a melting point of 134 to 136 °C.

In turn, `O=C1CCSc2cc(F)c(F)cc21` gave a melting point of 93 to 95 °C.

`O=c1[nH]c(CCl)nc2scc(-c3ccccc3Cl)c12` showed a melting point of 167 to 169 °C.

As to `O=Cc1cc2ccccc2nc1N1CCCCC1`, the melting point was in the range of 118 to 120 °C.

Consider `O=[N+]([O-])c1ccc(-c2noc(Cl)n2)cc1`, for which the melting point lay in the range of 118 to 120 °C.

`CNC1CC(=O)N(Cc2ccccc2)C1=O` (stereo unspecified): the melting point lay within 72 to 74 °C.

The compound `O=C(O)CCNC(=O)Nc1ccc(Br)cc1` yielded a melting point of 248 to 250 °C.

`O=C(c1cc2ccccc2cc1O)N1CCOCC1` returned a melting point of 216 to 218 °C.

`c1ccc(C2COCCN2)cc1` (stereo unspecified) came in with a melting point of 74 to 76 °C.

In turn, `OC1CCN(c2ccc(Cl)nn2)CC1` gave a melting point of 109 to 111 °C.

Regarding `O=C(O)c1cc(-c2ccccc2)cc(Cl)c1O`, the melting point fell in the range of 202 to 204 °C.

On to `NC(=O)C(N)C(N)=O`, for which the melting point was 171 to 173 °C.

The compound `O=C(Nc1ccc(O)cc1)C1CC1` registered a melting point of 212 to 214 °C.

For the compound `Cc1ccccc1-c1nonc1N`, the melting point is 88 to 90 °C.

In turn, `Cc1ccc(C(=O)C(=O)c2ccccc2)cc1C` displayed a melting point of 63 to 65 °C.

In turn, `CN(C)C(=O)c1ccc(N)cc1` returned a melting point of 151 to 153 °C.

`COc1ccc(NC(=O)CCl)c([N+](=O)[O-])c1` showed a melting point of 98 to 100 °C.

In turn, `Nc1ccc2c(c1)CCC(=O)N2` gave a melting point of 170 to 172 °C.

Take `Cc1cc(NC(=O)OCC(F)(F)F)n(C)n1`: the melting point lay in the range of 100 to 102 °C.

Compound `O=C(O)c1cn(-c2ccc(Br)cc2Cl)nn1` returned a melting point of 144 to 146 °C.

Consider `Cc1ccc2c(n1)OCCN2`, for which the melting point fell in the range of 109 to 111 °C.

With `Cn1c(N)nc2cc(F)ccc21`, the melting point lay in the range of 152 to 154 °C.

Take `N#Cc1cnc2ccccc2c1Cl`: the melting point fell in the range of 128 to 130 °C.

Consider `CC(C)(C)c1ccc(S(=O)(=O)Cl)s1`, for which the melting point is 47 to 49 °C.

The compound `c1n[nH]cc1C1CCCCN1` (stereo unspecified) registered a melting point of 114 to 116 °C.

In turn, `O=C(NO)c1occc1CSc1ccccc1` showed a melting point of 99 to 101 °C.

For the compound `O=Cc1csc(COc2ccccc2)n1`, the melting point was in the range of 76 to 78 °C.

As for `O=C(O)C1CCCN(C(=O)c2ccc(Br)c(F)c2)C1` (stereo unspecified), the melting point was in the range of 157 to 159 °C.

On to `O=C(O)CCc1ccccc1OC(F)(F)F`, for which the melting point was 49 to 51 °C.

Compound `COc1cc(C=O)cc(Cl)c1OCC(N)=O` had a melting point of 166 to 170 °C.

`Clc1cc(C2=NCCN2)ccn1` returned a melting point of 165 to 167 °C.

In turn, `NC(=O)c1c(N)sc2c1CCCCC2` returned a melting point of 195 to 199 °C.

For `O=C(O)CNC(=O)c1cccc(Br)c1`, the melting point is 148 to 150 °C.

On to `C[C@H](NC(=O)C1CCCCC1)C(=O)O`, for which the melting point lay within 127 to 129 °C.

Take `CCc1nnc(CO)n1C`: the melting point was 41 to 43 °C.

As to `O=S(=O)(c1ccc(Cl)c(N=C=S)c1)N1CCOCC1`, the melting point is 118 to 120 °C.

Compound `Cc1cc(Cl)n2ncnc2n1` returned a melting point of 220 to 222 °C.

Compound `O=C(O)c1ccc(=O)n(-c2ccccc2F)c1` yielded a melting point of 249 to 251 °C.

For `N#CCc1ccc(OCc2ccccn2)cc1`, the melting point fell in the range of 76 to 78 °C.

Compound `NC(=O)c1ccc2c(N)ncnc2c1` showed a melting point of 359 to 361 °C.

Take `Cc1ccc(-n2cc(SC(=O)N(C)C)cn2)cc1`: the melting point is 95 to 97 °C.

Take `CNc1nc(-c2ccccc2)no1`: the melting point lay within 124 to 126 °C.

Take `NC(=O)c1cncn1-c1ccccc1`: the melting point fell in the range of 182 to 184 °C.

In turn, `Clc1ccc(-n2cccn2)c(Cl)c1` showed a melting point of 34 to 36 °C.

As for `CN1CCC(C)(O)CC1`, the melting point was in the range of 62 to 64 °C.

`Nc1ccc(-n2ccnn2)cc1` showed a melting point of 137 to 139 °C.

On to `COc1cccc(Nc2nc3ccccc3s2)c1`, for which the melting point fell in the range of 117 to 119 °C.

`C#Cc1cccc(OC)n1` returned a melting point of 47 to 49 °C.

For `Nc1cccc(N2C(=O)CC3(CCCC3)C2=O)c1`, the melting point was 136 to 138 °C.

On to `CC(=O)c1ccc2c(c1)CCC(=O)N2`, for which the melting point fell in the range of 162 to 164 °C.

As to `CCS(=O)(=O)Nc1ccccc1F`, the melting point fell in the range of 68 to 70 °C.

As for `NC(=NO)C1CN(Cc2ccccc2)CCO1` (stereo unspecified), the melting point is 116 to 118 °C.

In the case of `O=Cc1ccc(OCC(=O)Nc2ccc(Cl)cc2)cc1`, the melting point was 139 to 141 °C.

On to `CC(=O)Nc1nnc(S)s1`, for which the melting point lay in the range of 267 to 269 °C.

The compound `COC(=O)Cc1ccc(Oc2ccnc(C#N)c2)cc1` yielded a melting point of 120 to 122 °C.

For the compound `O=C(CCl)Nc1ccc(N2CCc3ccccc32)cc1`, the melting point is 167 to 169 °C.

As for `CCc1c(O)nc(S)n(-c2ccccc2OC)c1=O`, the melting point is 160 to 162 °C.

Consider `N#Cc1ccc(S)c(F)c1`, for which the melting point lay in the range of 59 to 61 °C.

With `COC(=O)c1ccc(CNC(=O)CCl)cc1`, the melting point lay within 108 to 110 °C.

Turning to `Nc1nc(-c2cc(Br)cs2)cs1`, the melting point lay in the range of 149 to 151 °C.

The compound `O=C(CCl)N1CCN(C(=O)Nc2ccccc2)CC1` displayed a melting point of 168 to 170 °C.

Compound `Cn1cc(C(=O)O)c(C(F)(F)F)n1` showed a melting point of 210 to 212 °C.

In the case of `O=C(O)C1CC(O)CN1C(=O)Cc1ccccc1F` (stereo unspecified), the melting point lay in the range of 201 to 203 °C.
